We go through two compounds from patent US20170196893A1, “TREATMENT OF INFLAMMATORY DEMYELINATING DISEASE WITH AGONISTS OF FARNESOID X RECEPTOR” (The Board of Trustees of the Leland Stanford Junior …, priority 2016, published 2017).

Common to all, as to type: in vivo, mouse
Assay [1] relates to splenocytes (CD4+ T cells, CD8+ T cells, CD19+ B cells). In words: FACS analysis of splenocytes harvested from treated MOG35-55-immunized mice. Conditions: eleven days oral dosing; for BTLA expression on CD4+ T cells: vehicle 2.87%; for PD1 expression on CD4+ T cells: vehicle 3.5%; for PD-L1 expression on CD4+ T cells: vehicle 8.32%; for BTLA expression on CD19+ B cells: vehicle 12.21%; for BTLA expression on CD8+ T cells: vehicle (WT) 0.78%; for PD1 expression on CD8+ T cells: vehicle (WT) 1.12%; for PD-L1 expression on CD8+ T cells: vehicle (WT) 5.63%; for CD3+CD8+ T cells: vehicle (WT) 6.75%; for CD3+CD4+ T cells: vehicle (WT) 8.34%; for PD1 expression on CD19+ B cells: vehicle (WT) 11.58%; for PD-L1 expression on CD19+ B cells: vehicle (WT) 12.21%; for CD19+B220+ B cells: vehicle (WT) 42.82%; for VLA-4 (CD29+CD49d+) expression on T cells: vehicle (WT) 44.12%; for VLA-4 (CD29+CD49d+) expression on B cells: vehicle (WT) 56.35%. From the text:
Flow cytometry Cells were stained according to standard protocols, run on a FACScan flow cytometer (BD Biosciences), and analysed with CellQuest software (BD Immunocytometry Systems). The antibody conjugates used were PerCPCy5.5 anti-CD3, FITC anti-CD4, PE anti-CD8, PE anti-B220, PerCp-Cy5.5 anti-B220, FITC anti-CD19, PE anti-PD1, PE anti-PD-L1, PE anti-BTLA, PE anti-CD29, and FITC anti-CD49d (BD Pharmingen & eBioscience)

The test system of assay [2] is experimental autoimmune encephalomyelitis (EAE). In words: Active EAE, clinical scores of mice with established EAE. The note with it: 5 mg/kg daily oral, 6-ECDCA vs CDCA vs vehicle (FIG. 3B).
Assay [3] has as its system MOG35-55-specific lymphocytes. As to the kind of experiment: 72 h proliferation assay (3H-thymidine) of splenocytes/lymph node cells harvested from treated mice, restimulated with MOG35-55. The protocol: (§1) Proliferation and cytokine assays. Splenocytes and lymph nodes were harvested and stimulated with increasing concentrations of MOG35-55 for a total of 72 hours. For assessment of proliferation, 1 μCi of ^3H-thymidine was added to each well for the final 18-24 hours of culture, and incorporation of radioactivity was measured by using a Betaplate scintillation counter. Cytokine assays were performed on culture supernatants after 72 hours of culture by using the IL-2, IL-6, IFNgamma, and TNF BD OptEIA™ Mouse ELISA kits (BD Biosciences) or Mouse IL-17 DuoSet ELISA Development kit (R&D Systems).

A further assay deals with splenocytes. In words: Cytokine production (ELISA) by splenocytes harvested from treated mice, restimulated with MOG35-55. Conditions: daily oral treatment of established EAE (FIG. 3D). The protocol:
as §1
For orientation: ELISA stands for enzyme-linked immunosorbent assay.

Assay [4] can be described thus: Serum lipid panel analysis of treated MOG35-55-immunized mice fasted overnight. The note with it: eleven days of oral dosing after EAE immunization, overnight fast (FIG. 4A). From the text:
Serum Lipid Panel Analysis. Serum from mice fasted overnight was submitted to the Diagnostic Laboratory at Stanford University, Department of Comparative Medicine for a full lipid panel analysis.

The subject of assay [5] is experimental autoimmune encephalomyelitis (EAE). In words: Adoptive transfer EAE with cells of treated donor mice. The note with it: donor mice treated eleven days, cells restimulated 72 h with MOG35-55 and rIL-12; vs vehicle treated donors (FIG. 4D). On the procedure:
Mice and EAE Induction. C57BL/6J and FXRKO (B6.129x1(FVB)-Nr1h4tm1Gonz/J, #0007214) female mice were purchased from the Jackson Laboratory. Animal experiments were approved by, and performed in compliance with, the National Institute of Health guidelines of the Institutional Animal Care and Use Committee at Stanford University. For induction of active and adoptive transfer of EAE, 8- to 12-week-old female mice were immunized subcutaneously with 100 μg of MOG35-55 emulsified in complete Freund's adjuvant (CFA), consisting of incomplete Freund's Adjuvant and 0.4 mg of heat inactivated Mycobacterium tuberculosis, strain H37 RA (Difco Laboratories). On days 0 and 2, mice were also injected intravenously or intraperitoneally with 400 ng pertussis toxin in 0.2 ml 1×PBS. Adoptive transfer requires harvesting lymph nodes and spleens ten days after immunization. Combined lymphocytes and splenocytes are cultured in bulk, at 5×10^7 cells/ml for seventy-two hours in the presence of MOG35-55 (20 μg/ml) and rIL-12 (10 ng/ml, R&D systems). Cells are harvested and washed twice before transfer of 3×10^7 cells in 0.2 ml 1×PBS into naive 6-7 week old female mice, intraperitoneally. Clinical disease was monitored daily using the following scoring system: 0, no disease; 1, limp tail; 2, hind limb weakness; 3, hind limb paralysis; 4, hind limb and forelimb paralysis; 5, death.

With `CC[C@H]1[C@@H](O)[C@@H]2[C@H](CC[C@]3(C)[C@@H]([C@H](C)CCC(=O)O)CC[C@@H]23)[C@@]2(C)CC[C@@H](O)C[C@@H]12` [6-ECDCA, 6α-Ethyl-chenodeoxycholic acid], in assay [1], the “BTLA expression on CD4+ T cells” value stood at 2.38%, the “PD1 expression on CD4+ T cells” value is 2.74%, the “PD-L1 expression on CD4+ T cells” value is 6.59% and the “BTLA expression on CD19+ B cells” value is reported as 6.23%. In assay [1], the “BTLA expression on CD8+ T cells” value is 1.21%, the “PD1 expression on CD8+ T cells” value worked out at 1.82%, the “PD-L1 expression on CD8+ T cells” value turned out to be 9.5% and the “CD3+CD8+ T cells” value was found to be 12.22%. Further, in assay [1], the “CD3+CD4+ T cells” value is reported as 7.33%, the “PD1 expression on CD19+ B cells” value is reported as 12.3%, the “PD-L1 expression on CD19+ B cells” value amounted to 11.34% and the “CD19+B220+ B cells” value came to 30.69%. Besides, in assay [1], the “VLA-4 (CD29+CD49d+) expression on T cells” value came out at 36.67% and the “VLA-4 (CD29+CD49d+) expression on B cells” value is given as 51.98%.

For the compound `C[C@H](CCC(=O)O)[C@H]1CC[C@H]2[C@@H]3[C@H](O)C[C@@H]4C[C@H](O)CC[C@]4(C)[C@H]3CC[C@]12C` [CDCA, Chenodeoxycholic acid], the “Clinical EAE score (average EAE disease grade)” value in assay [2] is listed as “clinical disease was ameliorated”. Further, in assay [3] (daily oral treatment of established EAE (FIG. 3C)), the “T cell recall responses to MOG35-55” value was “significantly suppressed”. Also, the “Recall responses of MOG35-55-specific lymphocytes (proliferation)” value in assay [3] (eleven days of oral dosing, combined splenocytes and lymphocytes, vs vehicle (FIG. 4B)) was “greatly reduced”. In the assay with splenocytes, the IFN-gamma production result was “decreased”, the IL-6 production entry is “decreased”, the IL-17 production entry is on record as “not significantly altered” and the TNF production result is reported as “decreased”. Also, in assay [4], the “Serum HDL levels” value was “decreased”, the Serum cholesterol levels entry is given as “decreased”, the “Serum low-density lipoprotein (LDL) levels” value is “not significantly altered” and the Serum triglycerides result is on record as “not significantly altered”. Besides, in assay [1], the “BTLA expression on CD4+ T cells” value is on record as 2.77%, the “PD1 expression on CD4+ T cells” value is given as 2.64%, the “PD-L1 expression on CD4+ T cells” value came out at 8.43% and the “BTLA expression on CD19+ B cells” value is 6.76%. Besides, in assay [1], the “BTLA expression on CD8+ T cells” value was found to be 1.92%, the “PD1 expression on CD8+ T cells” value was 1.63%, the “PD-L1 expression on CD8+ T cells” value is on record as 12.3% and the “CD3+CD8+ T cells” value turned out to be 12.92%. Further, in assay [1], the “CD3+CD4+ T cells” value was 7.89%, the “PD1 expression on CD19+ B cells” value stood at 9.58%, the “PD-L1 expression on CD19+ B cells” value is 3.79% and the “CD19+B220+ B cells” value was 36.07%. Further, in assay [1], the “VLA-4 (CD29+CD49d+) expression on T cells” value stood at 33.78% and the “VLA-4 (CD29+CD49d+) expression on B cells” value came out at 49.16%. The “Clinical EAE scores of naive recipient mice” value in assay [5] is on record as “significantly less severe disease”.
